From patent US9403808B2, “Pyrazine derivatives” (Hoffmann-La Roche Inc., priority 2011, dated 2016) come the findings set out here.

One assay deals with human CB2 receptors (Homo sapiens (Human), UniProt P34972). Nature of the assay: functional cAMP assay, CB2. Type of assay: cell-based. The following applies: functional cAMP assay, CHO cells expressing human CB2; read-out: human CB2 EC50. In short, it runs like this:
(§1)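 CHO cells expressing human CB1 or CB2 were preincubated 30 min at 30 °C in Krebs Ringer bicarbonate buffer with 1 mM IBMX, then exposed to compound for 30 min at 30 °C. cAMP was measured by TR-FRET (cAMP-Nano-TRF) against a 10 μM–0.13 nM cAMP standard curve, and EC50 values were derived.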
(In general: Changes in cAMP serve as a functional read-out for many G protein-coupled receptors.)

The target of the next assay is human CB1 receptors (Homo sapiens (Human), UniProt P21554). Nature of the assay: functional cAMP assay, CB1. As to conditions: functional cAMP assay, CHO cells expressing human CB1; read-out: human CB1 EC50. Type of assay: cell-based. In short, it runs like this: as §1
Chain of human CB1 receptors (P21554 whole entry): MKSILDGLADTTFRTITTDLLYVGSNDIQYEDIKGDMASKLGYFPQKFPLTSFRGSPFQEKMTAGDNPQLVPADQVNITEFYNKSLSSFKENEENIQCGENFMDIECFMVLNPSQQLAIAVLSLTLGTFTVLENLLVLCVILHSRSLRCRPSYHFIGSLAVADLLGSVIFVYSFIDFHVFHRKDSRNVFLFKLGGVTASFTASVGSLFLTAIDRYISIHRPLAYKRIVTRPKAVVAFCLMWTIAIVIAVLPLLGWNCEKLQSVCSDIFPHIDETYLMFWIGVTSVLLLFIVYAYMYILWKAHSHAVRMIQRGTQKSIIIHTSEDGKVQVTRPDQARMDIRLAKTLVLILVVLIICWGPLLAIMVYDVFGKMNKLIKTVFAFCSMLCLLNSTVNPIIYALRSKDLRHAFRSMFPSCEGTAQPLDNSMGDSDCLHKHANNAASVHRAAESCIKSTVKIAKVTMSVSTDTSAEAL

In general, EC50 refers to the concentration needed to bring the measured effect to its halfway point.

Chain of human CB2 receptors (P34972 whole entry): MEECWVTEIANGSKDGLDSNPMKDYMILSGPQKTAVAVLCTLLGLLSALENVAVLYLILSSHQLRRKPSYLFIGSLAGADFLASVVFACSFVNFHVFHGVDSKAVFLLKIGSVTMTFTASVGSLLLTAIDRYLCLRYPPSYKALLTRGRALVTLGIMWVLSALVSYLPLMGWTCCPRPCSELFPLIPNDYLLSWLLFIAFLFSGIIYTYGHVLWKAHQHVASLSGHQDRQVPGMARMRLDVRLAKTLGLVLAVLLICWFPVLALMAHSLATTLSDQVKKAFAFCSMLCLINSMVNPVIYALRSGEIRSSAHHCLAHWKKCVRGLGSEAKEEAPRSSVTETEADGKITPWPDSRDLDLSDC

For `Cc1nc([C@@H](C)NC(=O)c2cnc(N3CC(F)(F)C3)c(OCC3CC3)n2)no1` [Example 56, 6-Cyclopropylmethoxy-5-(3,3-difluoro-azetidin-1-yl)-pyrazine-2-carboxylic acid [(R)-1-(5-methyl-[1,2,4]oxadiazol-3-yl)-ethyl]amide], the EC50 at human CB2 receptors is 72.5 nM; at human CB1 receptors it was more than 10000 nM.

Regarding `CC(C)(NC(=O)c1cnc(C2CC2)c(OCC2CC2)n1)c1noc(N)n1` [Example 57, 5-Cyclopropyl-6-cyclopropylmethoxy-pyrazine-2-carboxylic acid [1-(5-amino-[1,2,4]oxadiazol-3-yl)-1-methyl-ethyl]-amide], the EC50 at human CB2 receptors is 221 nM; at human CB1 receptors it was more than 10000 nM.

On to `CC(C)(NC(=O)c1cnc(N2CC(F)(F)C2)c(OCC2CC2)n1)c1noc(N)n1` [Example 58, 6-Cyclopropylmethoxy-5-(3,3-difluoro-azetidin-1-yl)-pyrazine-2-carboxylic acid [1-(5-amino-[1,2,4]oxadiazol-3-yl)-1-methyl-ethyl]-amide], for which the EC50 was 178 nM on human CB2 receptors and more than 10000 nM on human CB1 receptors.

As for `C[C@@](NC(=O)c1cnc(N2CC(F)(F)C2)c(OCC2CC2)n1)(C(N)=O)c1ccccc1` [Example 59, 6-Cyclopropylmethoxy-5-(3,3-difluoro-azetidin-1-yl)-pyrazine-2-carboxylic acid ((S)-1-carbamoyl-1-phenyl-ethyl)-amide], the EC50 on human CB2 receptors was 49.2 nM; on human CB1 receptors, more than 10000 nM.

Regarding `Cc1nc(C(C)(CC2CC2)NC(=O)c2cnc(N3CC(F)(F)C3)c(OCC3CC3)n2)no1` (stereo not drawn) [Example 60, 6-Cyclopropylmethoxy-5-(3,3-difluoro-azetidin-1-yl)-pyrazine-2-carboxylic acid [2-cyclopropyl-1-methyl-1-(5-methyl-[1,2,4]oxadiazol-3-yl)-ethyl]-amide], the values for the EC50 at human CB2 receptors and on human CB1 receptors were 14.6 nM and more than 10000 nM, respectively.

With `Cc1nc(C(C)(NC(=O)c2cnc(N3CC(F)(F)C3)c(OCC3CC3)n2)C2CC2)no1` (stereo not drawn) [Example 61, 6-Cyclopropylmethoxy-5-(3,3-difluoro-azetidin-1-yl)-pyrazine-2-carboxylic acid [1-cyclopropyl-1-(5-methyl-[1,2,4]oxadiazol-3-yl)-ethyl]-amide], the EC50 was 17.9 nM at human CB2 receptors and more than 10000 nM at human CB1 receptors.

Consider `Cc1nc(C(C)(NC(=O)c2cnc(C3CC3)c(OCC3CC3)n2)C2CC2)no1` (stereo not drawn) [Example 62, 5-Cyclopropyl-6-cyclopropylmethoxy-pyrazine-2-carboxylic acid [1-cyclopropyl-1-(5-methyl-[1,2,4]oxadiazol-3-yl)-ethyl]-amide], for which the EC50 at human CB2 receptors turned out to be 22.8 nM; on human CB1 receptors, 1650 nM.

For `COC(=O)C(C)(NC(=O)c1cnc(N2CC(F)(F)C2)c(OCC2CC2)n1)C1CC1` (stereo not drawn) [Example 80, 2-Cyclopropyl-2-{[6-cyclopropylmethoxy-5-(3,3-difluoro-azetidin-1-yl)-pyrazine-2-carbonyl]-amino}-propionic acid methyl ester], the EC50 at human CB2 receptors is 0.7 nM; on human CB1 receptors it was more than 10000 nM.

`NC(=O)CC1(NC(=O)c2cnc(C3CC3)c(OCC3CC3)n2)COC1` [Example 84, 5-Cyclopropyl-6-cyclopropylmethoxy-pyrazine-2-carboxylic acid (3-carbamoylmethyl-oxetan-3-yl)-amide]: the EC50 at human CB2 receptors is 14.6 nM; at human CB1 receptors, more than 10000 nM.

As to `NC(=O)CC1(NC(=O)c2cnc(N3CC(F)(F)C3)c(OCC3CC3)n2)COC1` [Example 85, 6-Cyclopropylmethoxy-5-(3,3-difluoro-azetidin-1-yl)-pyrazine-2-carboxylic acid (3-carbamoylmethyl-oxetan-3-yl)-amide], the figures for the EC50 at human CB2 receptors and on human CB1 receptors were 5.8 nM and more than 10000 nM, respectively.

Consider `Cc1nc([C@@](C)(NC(=O)c2cnc(N3CC(F)(F)C3)c(OCC3CC3)n2)C2CC2)no1` [Example 86, (+)-6-Cyclopropylmethoxy-5-(3,3-difluoro-azetidin-1-yl)-pyrazine-2-carboxylic acid [1-cyclopropyl-1-(5-methyl-[1,2,4]oxadiazol-3-yl)-ethyl]-amide], for which the EC50 on human CB2 receptors was 23.7 nM; on human CB1 receptors, more than 10000 nM.

With `Cc1nc([C@](C)(NC(=O)c2cnc(N3CC(F)(F)C3)c(OCC3CC3)n2)C2CC2)no1` [Example 87, (−)-6-Cyclopropylmethoxy-5-(3,3-difluoro-azetidin-1-yl)-pyrazine-2-carboxylic acid [1-cyclopropyl-1-(5-methyl-[1,2,4]oxadiazol-3-yl)-ethyl]-amide], the EC50 is 13.2 nM at human CB2 receptors and more than 10000 nM at human CB1 receptors.

`CC(C)C(NC(=O)c1cnc(N2CC(F)(F)C2)c(OCC2CC2)n1)C(N)=O` (stereo not drawn) [Example 88, 6-Cyclopropylmethoxy-5-(3,3-difluoro-azetidin-1-yl)-pyrazine-2-carboxylic acid (1-carbamoyl-2-methyl-propyl)-amide]: the EC50 on human CB2 receptors was 79.1 nM; on human CB1 receptors, more than 10000 nM.

Consider `NC(=O)C1(NC(=O)c2cnc(N3CC(F)(F)C3)c(OCC3CC3)n2)CCCCC1` [Example 89, 6-Cyclopropylmethoxy-5-(3,3-difluoro-azetidin-1-yl)-pyrazine-2-carboxylic acid (1-carbamoyl-cyclohexyl)-amide], for which the figures for the EC50 on human CB2 receptors and at human CB1 receptors were 70.6 nM and more than 10000 nM, respectively.

Turning to `CC(C)C(NC(=O)c1cnc(N2CC(F)(F)C2)c(OCC2CC2)n1)C(=O)N(C)C` (stereo not drawn) [Example 91, 6-Cyclopropylmethoxy-5-(3,3-difluoro-azetidin-1-yl)-pyrazine-2-carboxylic acid (1-dimethylcarbamoyl-2-methyl-propyl)-amide], the EC50 at human CB2 receptors is 20.5 nM; at human CB1 receptors, more than 10000 nM.

For `CC(C)C(NC(=O)c1cnc(C2CC2)c(OCC2CC2)n1)C(=O)N(C)C` (stereo not drawn) [Example 92, 5-Cyclopropyl-6-cyclopropylmethoxy-pyrazine-2-carboxylic acid (1-dimethylcarbamoyl-2-methyl-propyl)-amide], the half-maximal effective concentration (EC50) on human CB2 receptors was 8.6 nM; at human CB1 receptors, more than 10000 nM.

With `O=C(Nc1ccc(Cl)s1)c1cnc(N2CC(F)(F)C2)c(OCC2CC2)n1` [Example 93, 6-Cyclopropylmethoxy-5-(3,3-difluoro-azetidin-1-yl)-pyrazine-2-carboxylic acid (5-chloro-thiophen-2-yl)-amide], the EC50 on human CB2 receptors is 74.1 nM; at human CB1 receptors it was more than 10000 nM.

In the case of `O=C(NC1(CO)CCCCC1)c1cnc(C2CC2)c(OCC2CC2)n1` [Example 94, 5-Cyclopropyl-6-cyclopropylmethoxy-pyrazine-2-carboxylic acid (1-hydroxymethyl-cyclohexyl)-amide], the EC50 at human CB2 receptors is 12 nM; at human CB1 receptors it was more than 10000 nM.

As for `COCCC(C)(C)NC(=O)c1cnc(C2CC2)c(OCC2CC2)n1` [Example 95, 5-Cyclopropyl-6-cyclopropylmethoxy-pyrazine-2-carboxylic acid (3-methoxy-1,1-dimethyl-propyl)-amide], the EC50 at human CB2 receptors is 22.4 nM; at human CB1 receptors, more than 10000 nM.

`CN(C)C(=O)C(CC1CCC1)NC(=O)c1cnc(N2CC(F)(F)C2)c(OCC2CC2)n1` (stereo not drawn) [Example 97, 6-Cyclopropylmethoxy-5-(3,3-difluoro-azetidin-1-yl)-pyrazine-2-carboxylic acid (2-cyclobutyl-1-dimethylcarbamoyl-ethyl)-amide]: the EC50 on human CB2 receptors was 20.4 nM; on human CB1 receptors, more than 10000 nM.

Turning to `CNC(=O)C(CC1CCC1)NC(=O)c1cnc(C2CC2)c(OCC2CC2)n1` (stereo not drawn) [Example 98, 5-Cyclopropyl-6-cyclopropylmethoxy-pyrazine-2-carboxylic acid (2-cyclobutyl-1-methylcarbamoyl-ethyl)-amide], the EC50 on human CB2 receptors was 59.3 nM; on human CB1 receptors it was more than 10000 nM.

For the compound `COCCC(C)(C)NC(=O)c1cnc(N2CC(F)(F)C2)c(OCC2CC2)n1` [Example 99, 6-Cyclopropylmethoxy-5-(3,3-difluoro-azetidin-1-yl)-pyrazine-2-carboxylic acid (3-methoxy-1,1-dimethyl-propyl)-amide], the EC50 at human CB2 receptors is 10.3 nM; at human CB1 receptors, more than 10000 nM.

Consider `O=C(NC(CO)CC1CCC1)c1cnc(N2CC(F)(F)C2)c(OCC2CC2)n1` (stereo not drawn) [Example 100, 6-Cyclopropylmethoxy-5-(3,3-difluoro-azetidin-1-yl)-pyrazine-2-carboxylic acid (1-cyclobutylmethyl-2-hydroxy-ethyl)-amide], for which the values for the EC50 at human CB2 receptors and on human CB1 receptors were 7.3 nM and more than 10000 nM, respectively.

In the case of `NC(=O)C(CC1CCC1)NC(=O)c1cnc(N2CC(F)(F)C2)c(OCC2CC2)n1` (stereo not drawn) [Example 101, 6-Cyclopropylmethoxy-5-(3,3-difluoro-azetidin-1-yl)-pyrazine-2-carboxylic acid (1-carbamoyl-2-cyclobutyl-ethyl)-amide], the EC50 on human CB2 receptors was 5.6 nM; on human CB1 receptors, more than 10000 nM.

On to `CC(C)(CCc1ccccc1)NC(=O)c1cnc(N2CC(F)(F)C2)c(OCC2CC2)n1` [Example 102, 6-Cyclopropylmethoxy-5-(3,3-difluoro-azetidin-1-yl)-pyrazine-2-carboxylic acid (1,1-dimethyl-3-phenyl-propyl)-amide], for which the EC50 at human CB2 receptors was 2.5 nM; on human CB1 receptors, more than 10000 nM.

Regarding `CN(C)C(=O)C(CC1CCC1)NC(=O)c1cnc(C2CC2)c(OCC2CC2)n1` (stereo not drawn) [Example 103, 5-Cyclopropyl-6-cyclopropylmethoxy-pyrazine-2-carboxylic acid (2-cyclobutyl-1-dimethylcarbamoyl-ethyl)-amide], the values for the EC50 at human CB2 receptors and at human CB1 receptors were 19.2 nM and more than 10000 nM, respectively.

On to `NC(=O)C(CC1CCC1)NC(=O)c1cnc(C2CC2)c(OCC2CC2)n1` (stereo not drawn) [Example 104, 5-Cyclopropyl-6-cyclopropylmethoxy-pyrazine-2-carboxylic acid (1-carbamoyl-2-cyclobutyl-ethyl)-amide], for which the EC50 on human CB2 receptors is 42.9 nM; at human CB1 receptors it was more than 10000 nM.
